Assay type in all cases: functional
The target of one assay is Lysine--tRNA ligase (Plasmodium falciparum (isolate 3D7), UniProt Q8IDJ8). The experiment in a line: MMV: KRS recombinant Plasmodium falciparum Lysyl-tRNA-synthetase, assay with yeast tRNA, ATP, and lysine and 3 uM MMV malaria box compound, assay read out with kinase glo as % inhibition. On the technique in general: Kinase-Glo reads ATP consumption through a luciferase reaction.

The target in a further assay is T1, Proline--tRNA ligase (Plasmodium falciparum (isolate 3D7), UniProt Q8I5R7).
T1 sequence (Q8I5R7 whole entry): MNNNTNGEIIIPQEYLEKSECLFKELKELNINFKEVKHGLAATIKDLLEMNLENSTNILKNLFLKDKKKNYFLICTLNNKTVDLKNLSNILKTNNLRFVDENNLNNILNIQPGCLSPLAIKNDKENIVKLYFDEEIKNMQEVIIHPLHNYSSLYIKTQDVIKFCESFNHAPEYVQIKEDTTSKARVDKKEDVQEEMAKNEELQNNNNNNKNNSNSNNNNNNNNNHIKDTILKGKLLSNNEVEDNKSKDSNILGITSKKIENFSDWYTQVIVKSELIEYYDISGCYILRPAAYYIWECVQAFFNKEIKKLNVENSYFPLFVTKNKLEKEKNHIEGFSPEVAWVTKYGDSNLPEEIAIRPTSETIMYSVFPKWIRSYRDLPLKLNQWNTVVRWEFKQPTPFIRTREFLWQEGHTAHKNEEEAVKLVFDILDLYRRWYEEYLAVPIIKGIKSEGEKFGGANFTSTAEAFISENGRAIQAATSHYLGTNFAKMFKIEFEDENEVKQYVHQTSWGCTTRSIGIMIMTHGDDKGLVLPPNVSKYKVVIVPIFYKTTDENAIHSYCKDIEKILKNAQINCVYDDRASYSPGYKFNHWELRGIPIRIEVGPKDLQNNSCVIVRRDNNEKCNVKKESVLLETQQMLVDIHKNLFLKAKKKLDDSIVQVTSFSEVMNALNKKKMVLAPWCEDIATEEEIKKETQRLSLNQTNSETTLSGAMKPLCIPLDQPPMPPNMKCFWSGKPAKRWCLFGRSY
In words: MMV: ProRS recombinant Plasmodium falciparum Prolyl-tRNA-synthetase, assay with yeast tRNA, ATP, and proline and 3 uM MMV malaria box compound, assay read out with kinase glo as % inhibition.

Assay [1] deals with T2, Cdk-related protein kinase 6 (Plasmodium falciparum, UniProt O77239).
T2 sequence (O77239 whole entry): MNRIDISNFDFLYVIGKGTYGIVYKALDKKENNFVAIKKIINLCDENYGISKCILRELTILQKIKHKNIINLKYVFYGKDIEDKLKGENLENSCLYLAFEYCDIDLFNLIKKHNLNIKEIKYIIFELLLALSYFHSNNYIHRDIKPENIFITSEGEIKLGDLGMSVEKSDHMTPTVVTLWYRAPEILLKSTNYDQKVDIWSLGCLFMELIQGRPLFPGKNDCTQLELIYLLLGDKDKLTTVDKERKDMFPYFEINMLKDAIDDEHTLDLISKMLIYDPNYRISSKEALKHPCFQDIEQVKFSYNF
The experiment in a line: Final concentrations were 1.5 uM ATP, 5 mM MnCl2, and 15 ug/ml PK6 in a buffer of 100 mM Tris-HCl (pH 7.5). 50 ug/mL MBP was provided as the substrate; 10 uM staurosporine was used as a control inhibitor. Incubation time was 3 hours and 40 minutes.The catalytic activity of each kinase was considered proportional to ATP consumed, as determined from measurements of residual [ATP] with the luciferase-based reagent Kinase-Glo (Promega) following incubation. Luminescence (proportional to residual [ATP]) was measured on the plate readers FLx800 (BioTek Instruments, Winooski, VT, USA) and MicroBeta2.

The target of assay [2] is T3, Mitogen-activated protein kinase (Plasmodium falciparum, UniProt Q25917).
T3 sequence (Q25917 whole entry): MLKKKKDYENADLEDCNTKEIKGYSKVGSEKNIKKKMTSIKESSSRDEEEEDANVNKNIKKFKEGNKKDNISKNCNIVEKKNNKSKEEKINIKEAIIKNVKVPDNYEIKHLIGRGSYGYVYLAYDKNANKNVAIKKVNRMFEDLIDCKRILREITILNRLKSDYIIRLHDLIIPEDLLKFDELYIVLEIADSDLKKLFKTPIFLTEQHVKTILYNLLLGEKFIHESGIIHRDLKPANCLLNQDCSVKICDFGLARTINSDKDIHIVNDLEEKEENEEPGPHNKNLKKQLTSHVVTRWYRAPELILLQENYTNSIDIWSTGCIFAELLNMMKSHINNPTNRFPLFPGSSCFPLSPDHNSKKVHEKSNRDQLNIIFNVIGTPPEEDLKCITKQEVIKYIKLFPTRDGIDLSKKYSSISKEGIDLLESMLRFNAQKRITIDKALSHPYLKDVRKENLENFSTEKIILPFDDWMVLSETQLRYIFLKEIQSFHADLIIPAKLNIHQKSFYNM
The experiment in a line: Final concentrations were 1 uM ATP, 0.5 mM DTT, 1 mM MgCl2, 0.5 mg/mL BSA, and 10 ug/ml MAP2 in a buffer of 50 mM HEPES (pH 7.0). 0.5 mg/mL histone III-S served as the substrate (13); 100 uM AMP-PNP, an ATP analog, was used as a control inhibitor. Incubation time was 4 hours.

The target in assay [3] is T4, Putative uncharacterized protein pk7 (Plasmodium falciparum, UniProt O96214).
T4 sequence (O96214 whole entry): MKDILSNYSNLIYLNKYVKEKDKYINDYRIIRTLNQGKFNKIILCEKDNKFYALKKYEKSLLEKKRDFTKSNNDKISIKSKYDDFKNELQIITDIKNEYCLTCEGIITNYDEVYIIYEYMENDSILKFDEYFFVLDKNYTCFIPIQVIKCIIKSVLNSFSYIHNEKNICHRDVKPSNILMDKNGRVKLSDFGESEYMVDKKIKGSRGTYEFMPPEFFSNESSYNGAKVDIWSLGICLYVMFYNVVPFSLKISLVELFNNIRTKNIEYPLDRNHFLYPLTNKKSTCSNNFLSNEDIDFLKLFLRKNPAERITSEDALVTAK
The experiment in a line: Final concentrations were 1 uM ATP, 2 mM DTT, 20 mM MgCl2, 2 mM MnCl2, 0.01% BSA, and 6 ug/ml PK7, in a buffer of 20 mM Tris-HCl (pH 7.5). The enzyme itself was the only substrate present (since autophosphorylation occurs); 100 uM 1NA-PP1 was used as a control inhibitor. Incubation time was 3 hours.

Assay [4] deals with T5, Calcium-dependent protein kinase 4 (Plasmodium falciparum (isolate 3D7), UniProt Q8IBS5).
T5 sequence (Q8IBS5 whole entry): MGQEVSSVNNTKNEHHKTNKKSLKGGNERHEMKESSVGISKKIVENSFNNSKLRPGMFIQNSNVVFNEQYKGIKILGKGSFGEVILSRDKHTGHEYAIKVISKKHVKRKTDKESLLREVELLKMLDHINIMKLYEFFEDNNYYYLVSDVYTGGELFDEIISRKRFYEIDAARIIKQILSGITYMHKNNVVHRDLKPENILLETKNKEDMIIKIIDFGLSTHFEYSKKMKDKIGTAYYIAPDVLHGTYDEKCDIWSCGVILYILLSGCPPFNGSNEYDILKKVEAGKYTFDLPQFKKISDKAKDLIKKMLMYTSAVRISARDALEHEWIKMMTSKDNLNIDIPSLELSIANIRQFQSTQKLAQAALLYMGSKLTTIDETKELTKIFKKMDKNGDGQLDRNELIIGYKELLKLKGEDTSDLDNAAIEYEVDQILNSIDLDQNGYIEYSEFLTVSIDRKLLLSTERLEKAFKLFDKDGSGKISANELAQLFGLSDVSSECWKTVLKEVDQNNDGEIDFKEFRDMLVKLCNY
The experiment in a line: MMV: CDPK4 Protein kinase inhibition assay using recombinant PfCDPK4, syntide2 peptide substrate, ATP and KinaseGlo to measure % inhibition at 1 uM MMV box compound.

Assay [5] has as its target Calcium-dependent protein kinase 1 (Plasmodium falciparum, UniProt P62344). The experiment in a line: MMV: CDPK1 Protein kinase inhibition assay using recombinant PfCDPK1, syntide 2 peptide substrate, ATP and KinaseGlo to measure % inhibition at 1 uM MMV box compound.

The structures appear in SMILES notation. Bounds are passed on as bounds.

Calcium-dependent protein kinase 1, sequence (P62344 whole entry): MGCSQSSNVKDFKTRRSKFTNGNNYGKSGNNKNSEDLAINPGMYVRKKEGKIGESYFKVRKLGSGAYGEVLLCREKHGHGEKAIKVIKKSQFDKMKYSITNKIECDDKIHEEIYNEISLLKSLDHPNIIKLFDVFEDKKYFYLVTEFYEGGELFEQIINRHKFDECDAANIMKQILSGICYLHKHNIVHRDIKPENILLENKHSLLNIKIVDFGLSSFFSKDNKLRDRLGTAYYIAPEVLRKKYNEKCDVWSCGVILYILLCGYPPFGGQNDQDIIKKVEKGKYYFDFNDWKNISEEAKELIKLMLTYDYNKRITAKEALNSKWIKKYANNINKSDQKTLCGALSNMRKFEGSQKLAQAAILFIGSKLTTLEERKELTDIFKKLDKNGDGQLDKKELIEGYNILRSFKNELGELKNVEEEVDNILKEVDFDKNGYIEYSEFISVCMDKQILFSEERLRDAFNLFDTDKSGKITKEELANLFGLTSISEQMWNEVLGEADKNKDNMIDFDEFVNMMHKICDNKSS
Lysine--tRNA ligase, sequence (Q8IDJ8 whole entry): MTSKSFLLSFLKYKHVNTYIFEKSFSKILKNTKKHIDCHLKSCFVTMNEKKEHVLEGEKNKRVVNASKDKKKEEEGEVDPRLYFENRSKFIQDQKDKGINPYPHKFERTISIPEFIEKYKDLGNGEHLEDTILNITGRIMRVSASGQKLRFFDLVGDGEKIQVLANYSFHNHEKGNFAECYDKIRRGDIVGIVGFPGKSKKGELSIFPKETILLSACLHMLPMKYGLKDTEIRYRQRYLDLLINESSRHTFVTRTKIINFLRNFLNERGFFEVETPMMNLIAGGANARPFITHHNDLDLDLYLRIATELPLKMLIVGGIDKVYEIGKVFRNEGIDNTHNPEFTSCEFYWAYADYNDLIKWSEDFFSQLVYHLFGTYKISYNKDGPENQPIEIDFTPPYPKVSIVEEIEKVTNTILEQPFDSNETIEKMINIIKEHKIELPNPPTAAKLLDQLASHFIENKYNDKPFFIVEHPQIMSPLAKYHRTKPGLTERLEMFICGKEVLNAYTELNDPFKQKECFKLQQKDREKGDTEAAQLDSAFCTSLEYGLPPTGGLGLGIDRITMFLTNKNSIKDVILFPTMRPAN

Turning to `Cc1cc(C)cc(Nc2cc(C)nc3nc(C(F)(F)F)nn23)c1`, the IC50 was greater than 2500 nM at Lysine--tRNA ligase; greater than 2500 nM on Proline--tRNA ligase; greater than 1000 nM in assay [1]; greater than 1000 nM in assay [2]; greater than 1000 nM in assay [3]; greater than 1000 nM in assay [4]. Moreover, in assay [5], the IC50 is greater than 1000 nM.

On to `Cc1ccc(-c2cc3c(SCC(=O)Nc4cc(C(F)(F)F)ccc4Cl)nccn3n2)cc1`, for which the concentration for half-maximal inhibition (IC50) at Lysine--tRNA ligase is greater than 2500 nM; on Proline--tRNA ligase, greater than 2500 nM; in assay [1], greater than 1000 nM; in assay [2] it was greater than 1000 nM; in assay [3], greater than 1000 nM; in assay [4] it was greater than 1000 nM. Besides, the IC50 in assay [5] was greater than 1000 nM.

In the case of `Cc1ccc(N2C(=O)C3C(C2=O)C2(c4ccccc4)C(=O)C3(c3ccccc3)C(c3ccccc3)=C2c2ccccc2)cc1` (centres undefined), the IC50 on Lysine--tRNA ligase was greater than 2500 nM; at Proline--tRNA ligase, greater than 2500 nM; in assay [1], greater than 1000 nM; in assay [2] it was greater than 1000 nM; in assay [3], greater than 1000 nM; in assay [4], greater than 1000 nM. Moreover, in assay [5], the IC50 was greater than 1000 nM.

Consider `CCc1c(C)c(=N)c2ccccc2n1C`, for which the IC50 is greater than 2500 nM on Lysine--tRNA ligase; greater than 2500 nM on Proline--tRNA ligase; greater than 1000 nM in assay [1]; greater than 1000 nM in assay [2]; greater than 1000 nM in assay [3]; greater than 1000 nM in assay [4]. The IC50 in assay [5] was greater than 1000 nM.

With `CCOC(=O)C1=C(c2ccccc2)N=c2sc(=Cc3cc(C)n(-c4ccc(F)cc4)c3C)c(=O)n2C1c1cccc(OC)c1OC` (centres undefined), the concentration for half-maximal inhibition (IC50) on Lysine--tRNA ligase was greater than 2500 nM; at Proline--tRNA ligase, greater than 2500 nM; in assay [1], greater than 1000 nM; in assay [2] it was greater than 1000 nM; in assay [3], greater than 1000 nM; in assay [4] it was greater than 1000 nM. Further, in assay [5], the IC50 was greater than 1000 nM.

As for `CCC1(C)CC(CCNCc2ccccc2O)(c2ccc(C)cc2)CCO1` (centres undefined), the IC50 was greater than 2500 nM on Lysine--tRNA ligase; greater than 2500 nM at Proline--tRNA ligase; greater than 1000 nM in assay [1]; greater than 1000 nM in assay [2]; greater than 1000 nM in assay [3]; greater than 1000 nM in assay [4]. Also, the 50% inhibitory concentration (IC50) in assay [5] is greater than 1000 nM.

For `Cc1cccc(Nc2nc(N)c3ccccc3n2)c1`, the IC50 was greater than 2500 nM at Lysine--tRNA ligase; greater than 2500 nM on Proline--tRNA ligase; greater than 1000 nM in assay [1]; greater than 1000 nM in assay [2]; greater than 1000 nM in assay [3]; greater than 1000 nM in assay [4]. Besides, the concentration for half-maximal inhibition (IC50) in assay [5] is greater than 1000 nM.

Take `COc1cc(OC)c(N(C)C(=O)c2cc3c(s2)-c2ccccc2S(=O)(=O)C3)cc1Cl`: the IC50 on Lysine--tRNA ligase is greater than 2500 nM; on Proline--tRNA ligase, greater than 2500 nM; in assay [1], greater than 1000 nM; in assay [2], greater than 1000 nM; in assay [3], greater than 1000 nM; in assay [4] it was greater than 1000 nM. Further, the half-inhibitory concentration (IC50) in assay [5] is greater than 1000 nM.

Turning to `COc1ccccc1CNC(=O)CCn1c(=O)[nH]c2ccsc2c1=O`, the IC50 at Lysine--tRNA ligase is greater than 2500 nM; on Proline--tRNA ligase, greater than 2500 nM; in assay [1], greater than 1000 nM; in assay [2], greater than 1000 nM; in assay [3] it was greater than 1000 nM; in assay [4] it was greater than 1000 nM. Moreover, the IC50 in assay [5] is greater than 1000 nM.

Consider `COc1ccc(Br)cc1C1Nc2ccc3ccccc3c2C2=C1C(=O)CC(c1ccccc1)C2` (centres undefined), for which the IC50 is greater than 2500 nM at Lysine--tRNA ligase; greater than 2500 nM at Proline--tRNA ligase; greater than 1000 nM in assay [1]; greater than 1000 nM in assay [2]; greater than 1000 nM in assay [3]; greater than 1000 nM in assay [4]. In assay [5], the half-inhibitory concentration (IC50) was greater than 1000 nM.

Take `Cc1cc(C=C2SC(=Nc3ccccc3)N(C3CCCC3)C2=O)c(C)n1-c1ccc(Cl)cc1`: the IC50 is greater than 2500 nM at Lysine--tRNA ligase; greater than 2500 nM at Proline--tRNA ligase; greater than 1000 nM in assay [1]; greater than 1000 nM in assay [2]; greater than 1000 nM in assay [3]; greater than 1000 nM in assay [4]. In addition, the IC50 in assay [5] is greater than 1000 nM.

For the molecule `CCOC(=O)c1cnc2c(C)cc(C)cc2c1Nc1ccc(OC)c(OC)c1`, the IC50 was greater than 2500 nM at Lysine--tRNA ligase; greater than 2500 nM on Proline--tRNA ligase; greater than 1000 nM in assay [1]; greater than 1000 nM in assay [2]; greater than 1000 nM in assay [3]; greater than 1000 nM in assay [4]. Besides, the IC50 in assay [5] was greater than 1000 nM.

As a reminder, the IC50 is the concentration that inhibits the measured activity by half.
